This is an account of results in ChEMBL document CHEMBL4665661, “Design, synthesis, and biological activity evaluation of (-)-6-O-desmethylantofine analogues as potent anti-cancer agents” (Bioorg Med Chem, 2019).

One assay concerns Bel-7402. Put plainly: Antiproliferative activity against human Bel-7402 cells after 72 hrs by SRB assay. It counts as functional, cell-based. Conditions: Bel-7402, 72 h.
For the next assay, the system named is HL-60. Put plainly: Antiproliferative activity against human HL-60 cells after 72 hrs by MTT assay. The class given is functional, cell-based. Conditions: HL-60, 72 h.

pIC50: −log10 of the molar value. A value given as a limit tells only on which side of the number the result lay.

Regarding `COc1cc2c3c(c4ccc(OCCOC(=O)[C@@H](N)C(C)C)cc4c2cc1OC)CN1CCC[C@H]1C3`, the figures for the negative logarithm of the IC50 (pIC50) in the assay on Bel-7402 and in the assay with HL-60 were under 5.00 and 5.11, respectively.
On to `COc1cc2c3c(c4ccc(OC(=O)c5ccccc5N)cc4c2cc1OC)CN1CCC[C@@H]1C3`, for which the negative-log IC50 (pIC50) is 7.08 with Bel-7402 and 7.60 in the assay on HL-60.
Regarding `COc1cc2c3c(c4ccc(O)cc4c2cc1OC)CN1CCC[C@H]1C3`, the negative logarithm of the IC50 (pIC50) in the assay on Bel-7402 was 6.53; in the assay on HL-60 it was 7.30.
Take `COc1cc2c3c(c4ccc(OC(C)=O)cc4c2cc1OC)CN1CCC[C@@H]1C3`: the negative-log IC50 (pIC50) in the assay with Bel-7402 was 6.64; with HL-60, 7.36.
On to `COc1cc2c3c(c4ccc(OC(=O)c5cccnc5)cc4c2cc1OC)CN1CCC[C@@H]1C3`, for which the pIC50 is 6.88 in the assay with Bel-7402 and 6.75 in the assay on HL-60.
With `COc1cc2c3c(c4ccc(OC(=O)C5CCCCC5)cc4c2cc1OC)CN1CCC[C@@H]1C3`, the pIC50 with Bel-7402 was 6.63; in the assay with HL-60 it was 6.17.
For `COc1cc2c3c(c4ccc(OC(=O)c5ccccc5)cc4c2cc1OC)CN1CCC[C@H]1C3`, the pIC50 in the assay on Bel-7402 was 5.96; in the assay on HL-60, 6.10.
For `COc1cc2c3c(c4ccc(OCCO)cc4c2cc1OC)CN1CCC[C@H]1C3`, in that order: 6.43 and 6.66.
Turning to `COc1cc2c3c(c4ccc(OCCOC(=O)[C@@H](N)CC(C)C)cc4c2cc1OC)CN1CCC[C@@H]1C3`, the negative-log IC50 (pIC50) in the assay with Bel-7402 is 5.90; in the assay with HL-60, 6.24.
As to `COc1cc2c3c(c4ccc(OC(=O)C(C)C)cc4c2cc1OC)CN1CCC[C@@H]1C3`, the pIC50 was 7.22 in the assay on Bel-7402 and 6.97 in the assay on HL-60.
Turning to `COc1cc2c3c(c4ccc(OCCOC(=O)[C@@H](N)Cc5ccccc5)cc4c2cc1OC)CN1CCC[C@H]1C3`, the figures for the pIC50 in the assay with Bel-7402 and with HL-60 were 5.64 and 6.22, respectively.
For the compound `COc1cc2c3c(c4ccc(OC(C)=O)cc4c2cc1OC)CN1CCC[C@H]1C3`, the pIC50 is 5.96 in the assay on Bel-7402 and 6.12 in the assay with HL-60.
The like results for `CCOC(=O)Oc1ccc2c3c(c4cc(OC)c(OC)cc4c2c1)C[C@@H]1CCCN1C3` were, in that order, 5.68 and 6.42.
The like results for `COc1cc2c3c(c4ccc(OC(=O)N(C)C)cc4c2cc1OC)CN1CCC[C@@H]1C3` were, in that order, 5.08 and 5.55.
Turning to `CCOC(=O)Oc1ccc2c3c(c4cc(OC)c(OC)cc4c2c1)C[C@H]1CCCN1C3`, the negative logarithm of the IC50 (pIC50) with Bel-7402 is 6.98; in the assay on HL-60, 7.18.
Regarding `COc1cc2c3c(c4ccc(OCCOC(=O)[C@@H]5CCCN5)cc4c2cc1OC)CN1CCC[C@@H]1C3`, the negative logarithm of the IC50 (pIC50) with Bel-7402 is 6.55; with HL-60 it was 6.63.
Consider `COc1cc2c3c(c4ccc(OC(=O)c5cccnc5)cc4c2cc1OC)CN1CCC[C@H]1C3`, for which the figures for the pIC50 with Bel-7402 and in the assay on HL-60 were 5.75 and 6.12, respectively.
As to `COc1cc2c3c(c4ccc(OC(=O)c5cccs5)cc4c2cc1OC)CN1CCC[C@@H]1C3`, the pIC50 in the assay on Bel-7402 was 7.08; in the assay with HL-60, 6.33.
As to `COc1cc2c3c(c4ccc(O)cc4c2cc1OC)CN1CCC[C@@H]1C3`, the negative-log IC50 (pIC50) in the assay on Bel-7402 is 7.59; in the assay with HL-60, 8.40.
As to `COc1cc2c3c(c4ccc(OC(=O)c5ccccc5)cc4c2cc1OC)CN1CCC[C@@H]1C3`, the pIC50 with Bel-7402 was 6.37; in the assay with HL-60 it was 6.34.
In the case of `COc1cc2c3c(c4ccc(OC(=O)N(C)C)cc4c2cc1OC)CN1CCC[C@H]1C3`, the negative logarithm of the IC50 (pIC50) in the assay with Bel-7402 and in the assay on HL-60 was under 5.00 in each case.
In the case of `COc1cc2c3c(c4ccc(OCCOC(=O)[C@H](C)N)cc4c2cc1OC)CN1CCC[C@H]1C3`, the figures for the pIC50 in the assay with Bel-7402 and in the assay on HL-60 were 5.55 and 5.97, respectively.
As for `COc1cc2c3c(c4ccc(OCCOC(=O)[C@@H](N)Cc5ccccc5)cc4c2cc1OC)CN1CCC[C@@H]1C3`, the pIC50 in the assay with Bel-7402 is 6.17; in the assay with HL-60, 6.25.
In the case of `COc1cc2c3c(c4ccc(OC(=O)C5CC5)cc4c2cc1OC)CN1CCC[C@H]1C3`, the pIC50 in the assay with Bel-7402 is 6.06; with HL-60, 6.21.
Regarding `COc1cc2c3c(c4ccc(OC(=O)/C=C/C=C/c5ccc6c(c5)OCO6)cc4c2cc1OC)CN1CCC[C@@H]1C3`, the pIC50 in the assay on Bel-7402 is 6.70; in the assay on HL-60 it was 7.25.
The like results for `COc1cc2c3c(c4ccc(OCCOC(=O)[C@@H](N)C(C)C)cc4c2cc1OC)CN1CCC[C@@H]1C3` were, in that order, 6.01 and 6.04.
With `COc1cc2c3c(c4ccc(OCCOC(=O)[C@H](C)N)cc4c2cc1OC)CN1CCC[C@@H]1C3`, the negative-log IC50 (pIC50) in the assay on Bel-7402 is 6.19; in the assay with HL-60, 6.31.
Take `CC[C@H](C)[C@H](N)C(=O)OCCOc1ccc2c3c(c4cc(OC)c(OC)cc4c2c1)C[C@H]1CCCN1C3`: the negative logarithm of the IC50 (pIC50) is 6.23 in the assay with Bel-7402 and 6.30 with HL-60.
With `COc1cc2c3c(c4ccc(OCCO)cc4c2cc1OC)CN1CCC[C@@H]1C3`, the values for the negative-log IC50 (pIC50) in the assay on Bel-7402 and in the assay with HL-60 were 7.01 and 7.09, respectively.
Take `COc1cc2c3c(c4ccc(OC(=O)/C=C/c5ccc6c(c5)OCO6)cc4c2cc1OC)CN1CCC[C@@H]1C3`: the negative-log IC50 (pIC50) in the assay with Bel-7402 was 6.73; in the assay on HL-60 it was 6.82.
Consider `COc1cc2c3c(c4ccc(OCCOC(=O)[C@@H](N)Cc5c[nH]c6ccccc56)cc4c2cc1OC)CN1CCC[C@@H]1C3`, for which the negative logarithm of the IC50 (pIC50) in the assay on Bel-7402 is 6.61; with HL-60, 6.95.
On to `COc1cc2c3c(c4ccc(OC(=O)C(C)C)cc4c2cc1OC)CN1CCC[C@H]1C3`, for which the figures for the negative-log IC50 (pIC50) in the assay with Bel-7402 and in the assay with HL-60 were 5.80 and 6.17, respectively.
Consider `COc1cc2c3c(c4ccc(OCC#N)cc4c2cc1OC)CN1CCC[C@H]1C3`, for which the negative-log IC50 (pIC50) in the assay on Bel-7402 was 6.70; in the assay on HL-60, 6.52.
For `COc1cc2c3c(c4ccc(OC(=O)C5CC5)cc4c2cc1OC)CN1CCC[C@@H]1C3`, in that order: 6.12 and 6.74.
Regarding `COc1cc2c3c(c4ccc(OC(=O)c5ccco5)cc4c2cc1OC)CN1CCC[C@@H]1C3`, the negative logarithm of the IC50 (pIC50) in the assay with Bel-7402 was 6.30; with HL-60, 6.75.
`COc1cc2c3c(c4ccc(OC(=O)C(C)(C)C)cc4c2cc1OC)CN1CCC[C@H]1C3`: the pIC50 in the assay on Bel-7402 was 5.81; in the assay with HL-60 it was 6.66.
Regarding `COc1cc2c3c(c4ccc(OC(=O)c5cccc6nnsc56)cc4c2cc1OC)CN1CCC[C@@H]1C3`, the pIC50 with Bel-7402 was 6.76; in the assay with HL-60, 6.64.
As for `COc1cc2c3c(c4ccc(OC(=O)C(C)(C)C)cc4c2cc1OC)CN1CCC[C@@H]1C3`, the negative-log IC50 (pIC50) in the assay with Bel-7402 was 6.53; in the assay with HL-60 it was 6.61.
